Here are results for 2 compounds from PMC10041525, “New Dual Inhibitors of Bacterial Topoisomerases with Broad-Spectrum Antibacterial Activity and In Vivo Efficacy against Vancomycin-Intermediate Staphylococcus aureus” (Journal of Medicinal Chemistry, 2023).

Converted amounts (≈) assume the structure as drawn.

One series in a line: physchem. Particulars: pH 7.4.
The nature of another series: hemolysis assay. Type of series: cell-based. Conditions: human, red blood cells, pH 7.4; read-out: Haemolysis. How it is done: RBCs were washed three times in Tyrode buffer (130 mM NaCl, 4 mM KCl, 2.8 mM Na acetate, 1 mM MgCl2, 10 mM HEPES, 10 mM glucose, 1 mM CaCl2, adjusted to pH 7.4) and resuspended in the same buffer. Final concentrations in the hemolysis assay were 100 μM compound, 1% DMSO, and 50% RBC, assayed in a 200 μL volume in a microtiter plate. The mixture was incubated at 37 °C for 45 min with shaking (250 rpm). After incubation, RBCs were removed by centrifugation, clear plasma was transferred to a fresh plate, and the amount of hemoglobin was measured using a spectrophotometer at 540 nm. The complete lysis control contained 2% Triton X-100 (in Tyrode buffer) instead of compound; the negative control contained Tyrode buffer but no compound. Percent hemolysis was calculated as: [Abs compound] – [Abs negative control]/[Abs complete lysis control] – [Abs negative control] × 100. Values greater than 1% hemolysis at 100 μM were regarded as a red flag.

The next series concerns the target S. aureus topo IV (Staphylococcus aureus, UniProt P0C1S7).
The next series has as its system A. baumannii ATCC 19606. Put plainly: MIC broth microdilution (CLSI). The class given is cell-based. Conditions: Acinetobacter baumannii, ATCC19606; ATCC 19606 used for 7l, 8b, 14, 16b, 16c; read-out: MIC. (Broth dilution looks for growth in wells or tubes with falling amounts of substance.)

S. aureus topo IV, sequence (P0C1S7 whole entry): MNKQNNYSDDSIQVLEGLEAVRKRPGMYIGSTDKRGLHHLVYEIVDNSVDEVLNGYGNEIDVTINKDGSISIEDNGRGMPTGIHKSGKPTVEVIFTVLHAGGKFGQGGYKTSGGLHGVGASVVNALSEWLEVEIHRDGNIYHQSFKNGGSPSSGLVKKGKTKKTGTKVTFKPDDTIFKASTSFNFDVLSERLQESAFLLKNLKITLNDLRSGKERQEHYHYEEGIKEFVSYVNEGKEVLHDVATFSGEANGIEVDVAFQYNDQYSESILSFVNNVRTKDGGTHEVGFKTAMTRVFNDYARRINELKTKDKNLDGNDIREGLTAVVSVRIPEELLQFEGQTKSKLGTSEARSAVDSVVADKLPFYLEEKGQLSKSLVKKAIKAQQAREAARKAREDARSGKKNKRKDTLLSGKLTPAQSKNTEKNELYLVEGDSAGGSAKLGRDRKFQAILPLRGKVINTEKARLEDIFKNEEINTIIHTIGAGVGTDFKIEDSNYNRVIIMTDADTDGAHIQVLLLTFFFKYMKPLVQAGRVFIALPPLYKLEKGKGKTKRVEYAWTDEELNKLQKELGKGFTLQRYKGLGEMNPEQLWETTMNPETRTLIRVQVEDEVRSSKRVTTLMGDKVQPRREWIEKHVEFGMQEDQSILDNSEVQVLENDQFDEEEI
S. aureus topo IV, sequence (P0C1U9 whole entry, further chain): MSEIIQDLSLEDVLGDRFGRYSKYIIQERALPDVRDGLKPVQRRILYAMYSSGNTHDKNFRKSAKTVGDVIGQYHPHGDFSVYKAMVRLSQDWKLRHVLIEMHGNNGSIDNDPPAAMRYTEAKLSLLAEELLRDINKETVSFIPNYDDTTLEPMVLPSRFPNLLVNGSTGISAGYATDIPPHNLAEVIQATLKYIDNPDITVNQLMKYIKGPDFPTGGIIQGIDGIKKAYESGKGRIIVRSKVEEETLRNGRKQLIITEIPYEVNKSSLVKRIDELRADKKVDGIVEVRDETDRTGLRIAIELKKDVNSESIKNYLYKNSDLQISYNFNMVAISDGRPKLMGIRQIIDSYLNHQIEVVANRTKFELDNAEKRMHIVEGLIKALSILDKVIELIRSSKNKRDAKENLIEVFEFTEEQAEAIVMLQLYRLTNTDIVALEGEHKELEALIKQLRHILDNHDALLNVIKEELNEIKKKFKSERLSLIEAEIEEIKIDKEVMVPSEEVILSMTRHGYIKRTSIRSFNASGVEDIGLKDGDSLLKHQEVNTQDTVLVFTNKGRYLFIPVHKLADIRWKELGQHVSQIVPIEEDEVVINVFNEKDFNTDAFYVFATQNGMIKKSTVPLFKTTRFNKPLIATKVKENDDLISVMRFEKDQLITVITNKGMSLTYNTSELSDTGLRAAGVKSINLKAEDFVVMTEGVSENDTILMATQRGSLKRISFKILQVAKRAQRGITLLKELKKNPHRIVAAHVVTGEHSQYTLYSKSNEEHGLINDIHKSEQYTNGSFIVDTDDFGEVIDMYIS
Procedure for S. aureus topo IV: In all experiments, the activity of the
enzymes was determined prior to the testing of the compound and 1 unit (U) was defined as the
amount of enzyme required to just fully supercoil or decatenate the substrate. This amount of
enzyme was initially used in determination of control inhibitor activity. These experiments were
performed in duplicate. […] The final DMSO
concentration was 1% for all assays. All measurements were performed in quadruplicates. The
condition for each reaction were as follows:
− S. aureus gyrase supercoiling assay
1 U of S. aureus gyrase was incubated with 0.5 µg of relaxed pBR322 DNA in a 30 µL reaction at
magnesium acetate, 10 mM DTT, 2 mM ATP, 500 mM potassium glutamate and 0.05 mg/mL
− S. aureus topo IV decatenation assay
1 U of S. aureus topo IV was incubated with 20 µg kDNA in a 30 µL reaction at 37 °C for 30
mM ATP, 350 mM potassium glutamate and 0.05 mg/mL albumin.
− A. baumannii gyrase supercoiling assay
1 U of A. baumannii gyrase was incubated with 0.5 µg of relaxed pBR322 DNA in a 30 µL reaction
blue), before being loaded on a 1.0% TAE gel run at 80V for 2 hours. Bands were visualised by
ethidium bromide staining for 20 minutes and destaining for 20 minutes. Gels were scanned using
documentation equipment (GeneGenius, Syngene, Cambridge, UK) and % inhibition levels were
measured by determining the relative fluorescence of the supercoiled band using gel scanning
software. […]
Procedure for physchem: 0.5 mL of 67 mM phosphate
in a rotational shaker (400 rpm) at 23 °C. After the incubation an aliquot of 200 µL was
1 µL of the supernatant was transferred to 96-well plate in triplicate wells, diluted 100×
with acetonitrile/H2O (60/40) containing 50 nM warfarin as internal standard and analyzed
performed comparing to a separately constructed standard series (10 nM to 1000 nM).
shaker (900 rpm) at 37 °C. After the incubation an aliquot of 200 µL was transferred to a
conical glass insert and centrifuged for 30 min at 10 000 × g at 37 °C. The supernatant was
transferred to a new HPLC vial appropriately diluted (100×, 1000×, 5000×) with
acetonitrile/H2O (50/50) containing 50 nM warfarin as internal standard and analyzed by
performed comparing to a separately constructed standard curve between 3 nM to 20000

The term solubility (thermodynamic) denotes solubility found after equilibrating the solid with the medium. One may read the IC50 as the concentration that gives 50% inhibition. Higher therefore signals weaker potency in that assay. Take `Cc1[nH]c(C(=O)Nc2nc3c(N4CCOCC4)cc(C(=O)O)cc3s2)c(Cl)c1Cl` [7a, 2-(3,4-Dichloro-5-methyl-1H-pyrrole-2-carboxamido)-4-morpholinobenzo[d]thiazole-6-carboxylic Acid]: the thermodynamic solubility at 24 h in “physchem” is 168 µM (≈ 76.5 µg/mL). For the same compound, the hemolysis at 45 min, 100 μM in “hemolysis assay” amounted to 0.28 ± 0.01%. This compound also had an IC50 against S. aureus topo IV of 8 ± 1.2 nM.
Usually MIC stands for the lowest concentration that inhibits growth of the organism. Take `Cc1[nH]c(C(=O)Nc2nc3c(N4CCOCC4)cc(C(=O)O)cc3s2)cc1F` [16b, 2-(4-Fluoro-5-methyl-1H-pyrrole-2-carboxamido)-4-morpholinobenzo[d]thiazole-6-carboxylic Acid]: the MIC in the series with A. baumannii ATCC 19606 was over 64 µg/mL.
